Patent EP0938474B1, “CYCLOPROPYLINDOLE COMPOUNDS AND THEIR USE AS PRODRUGS” (AUCKLAND UNISERVICES LIMITED, priority 1996, dated 1998)

Test system: UV4
Assay: Cytotoxicity (growth inhibition), 4 h drug exposure, methylene blue staining
Format: cell-based, rodent
Details: Cricetulus griseus; UV4 mutant AA8 line defective in excision repair; 4 hours exposure, then three days incubation
Method: Compounds of the invention were tested for cytotoxicity against four different cell lines, all of which are widely available in the art. AA8 is a wild type rodent cell line. UV4 is a mutant AA8 cell line defective in excision repair, and hypersensitive to many alkylating agents. EMT6 is a widely-used rodent line. SKOV is a human ovarian cell line.
Cell culture assays were performed in 96-well microtitre trays. Compounds of the invention were added in culture medium, using serial two-fold dilutions to provide duplicate cultures at five different concentrations for each of eight drugs (plus eight controls) per tray. Drugs were dissolved in water or DMSO immediately prior to addition to the cell culture. After 4 hours, drugs were removed by washing cultures three times with fresh medium, and the trays were incubated for a futher three days. Cell density was then determined by staining with methylene blue as described previously (Finlay, G. J., et al, Anal. Biochm. 1984, 139, 272-277) and the IC50 was calculated as the drug concentration providing 50% inhibition of growth relative to the controls.

## COc1cc2cc(C(=O)N3CC(COS(C)(=O)=O)c4c3cc(N)c3ccccc43)[nH]c2c(OC)c1OC (stereo not shown) [15o, 5-amino-1-[(methanesulfonyloxy)methyl]-3-[(5,6,7-trimethoxyindol-2-yl)carbonyl]-1,2-dihydro-3H-benz[e]indole]
  IC50: 665 nM
